Earlier results in US5942547A, “2-Deoxystreptamine derivatives, pharmaceutical compositions thereof and therapeutic methods using same” (priority 1996, dated 1999).

System: REV/RRE interaction

NC[C@@H]1O[C@H](O[C@H]2[C@@H](O)[C@H](O[C@@H]3[C@@H](O)[C@H](N)C[C@H](N)[C@H]3O[C@H]3O[C@H](CN)[C@@H](O)[C@H](O)[C@H]3N)O[C@@H]2CO)[C@H](N)[C@@H](O)[C@@H]1O [neomycin B]
disruption of the REV/RRE interaction (in words): could disrupt the REV/RRE interaction
